Values of other authors, collected in patent US5872104A, “Combinations and methods for reducing antimicrobial resistance” (Oridigm Corporation, priority 1994, dated 1999).
Values after ≈ are worked out from the molar mass of the structure shown. Values joined by “and” are separate entries in the source; they are usually repeats but may differ in a detail not shown here. Equal values may be shown once. Read-outs that look alike come from different tables or passages of the source.

Tests used:
[1] = system: Staphylococcus aureus, methicillin susceptible; details: in µg/mL; cited from earlier work
Neisseria gonorrhoeae [2] = details: in µg/mL; cited from earlier work
[3] = system: Streptococcus agalactactiae (group B); details: in µg/mL; cited from earlier work
Listeria monocytogenes [4] = details: in µg/mL; cited from earlier work
Campylobacter species = details: in µg/mL; cited from earlier work
Streptococcus pneumoniae = details: in µg/mL; cited from earlier work
Viridans streptococci = details: cited from earlier work
[5] = system: Chlamydia pneumoniae (formerly TWAR); details: in µg/mL; cited from earlier work
Chlamydia trachomatis = details: in µg/mL; cited from earlier work
[6] = system: Streptococcus pyogenes (group A), erythromycin susceptible; details: cited from earlier work
Bacteroides fragilis [7] = details: anaerobes; in µg/mL; cited from earlier work
Mycoplasma pneumoniae [8] = details: in µg/mL; cited from earlier work
Haemophilus influenzae [9] = details: in µg/mL; cited from earlier work
Clostridium perfringens = details: anaerobes; in µg/mL; cited from earlier work
Moraxella catarrhalis = details: in µg/mL; cited from earlier work
[10] = system: Staphylococcus aureus, methicillin resistant; details: cited from earlier work
[11] = versus erythromycin; cited from earlier work
H. influenzae = details: versus erythromycin; cited from earlier work
Legionella pneumophila = details: in µg/mL; cited from earlier work
Neisseria gonorrhoeae [12] = details: cited from earlier work
Bacteroides fragilis [13] = details: cited from earlier work
[14] = system: Neisseria gonorrhoeae (non β-lactamase producer); details: cited from earlier work
N. meningitidis = details: in µg/mL; cited from earlier work
[15] = system: Haemophilus influenzae (penicillin susceptible); details: cited from earlier work
Ureaplasma urealyticum = details: cited from earlier work
[16] = system: Staphylococcus haemolyticus; details: cited from earlier work
Neisseria meningitidis = details: cited from earlier work
Legionella spp. = details: cited from earlier work
Mycoplasma pneumoniae [17] = details: cited from earlier work
Bordetella pertussis [18] = details: cited from earlier work
[19] = system: Haemophilus influenzae (penicillin resistant); details: cited from earlier work
[20] = system: Staphylococcus coagulase .phi.; details: cited from earlier work
Streptococcus pyogenes = details: cited from earlier work
Bacillus spp. = details: cited from earlier work
Listeria monocytogenes [21] = details: in µg/mL; cited from earlier work; remark: listed apart in the source
[22] = system: Bordetella bronchiseptica; details: cited from earlier work
Haemophilus ducreyi = details: cited from earlier work
[23] = system: Staphylococcus aureus (penicillin susceptible); details: cited from earlier work
Nocardia asteroides = details: cited from earlier work
Streptococcus agalactiae = details: cited from earlier work
Campylobacter jejuni = details: in µg/mL; cited from earlier work
Streptococcus spp. = details: cited from earlier work
[24] = system: Staphylococcus aureus (penicillin resistant); details: cited from earlier work
Enterococcus spp. = details: cited from earlier work
[25] = system: Staphylococcus coagulase .phi. (non β-lactamase producer); details: cited from earlier work
S. aureus = details: agar disc susceptibility test; cited from earlier work
[26] = system: Staphylococcus coagulase .phi. (β-lactamase producer); details: cited from earlier work
[27] = system: Haemophilus parainfluenzae; details: cited from earlier work
Campylobacter pylori = details: cited from earlier work
Bordetella parapertussis = details: cited from earlier work
[28] = system: Staphylococcus epidermidis; details: cited from earlier work
Bordetella pertussis [29] = details: in µg/mL; cited from earlier work
[30] = in vivo; cited from earlier work
Enterococcus faecium = details: cited from earlier work
Staphylococcus aureus = details: cited from earlier work
Staphylococcus hominis = details: cited from earlier work
Corynebacterium JK = details: cited from earlier work
[31] = system: Staphylococcus aureus (methicillin susceptible); details: in µg/mL; cited from earlier work
[32] = system: Branhamella (Moraxella) catarrhalis; details: cited from earlier work
Haemophilus influenzae [33] = details: cited from earlier work
Borrelia burgdorferi = details: cited from earlier work

CC[C@H]1OC(=O)[C@H](C)[C@@H](O[C@H]2C[C@@](C)(OC)[C@@H](O)[C@H](C)O2)[C@H](C)[C@@H](O[C@@H]2O[C@H](C)C[C@H](N(C)C)[C@H]2O)[C@](C)(OC)C[C@@H](C)C(=O)[C@H](C)[C@@H](O)[C@]1(C)O [Clarithromycin]
MIC90 [1]: 0.12-0.24
MIC90 (Neisseria gonorrhoeae [2]): 0.25-2.0
MIC90 [3]: 0.03-0.25
MIC90 (Listeria monocytogenes [4]): 0.12-2.0
MIC90 (Campylobacter species): 1.0-8.0
MIC90 (Streptococcus pneumoniae): 0.015
MIC90 (Viridans streptococci): 0.03 µg/mL (≈ 0.0401 µM)
MIC90 [5]: 0.007
MIC90 (Chlamydia trachomatis): 0.06-0.125
MIC90 [6]: 0.015 µg/mL (≈ 0.0201 µM)
MIC90 (Bacteroides fragilis [7]): 2.0-8.0
MIC90 (Mycoplasma pneumoniae [8]): 0.008-0.03
MIC90 (Haemophilus influenzae [9]): 2.0-16.0
MIC90 (Clostridium perfringens): 0.5-2.0
MIC90 (Moraxella catarrhalis): 0.25-1.0
MIC90 [10]: > 128 µg/mL
stability [11]: better stability properties
H. influenzae activity (H. influenzae): enhanced H. influenzae activity
MIC90 (Legionella pneumophila): 0.25

CC[C@H]1OC(=O)[C@H](C)[C@@H](O[C@H]2C[C@@](C)(OC)[C@@H](O)[C@H](C)O2)[C@H](C)[C@@H](O[C@@H]2O[C@H](C)C[C@H](N(C)C)[C@H]2O)[C@](C)(O)C[C@@H](C)C(=O)[C@H](C)[C@@H](O)[C@]1(C)O [Erythromycin]
MIC50 (Neisseria gonorrhoeae [12]): 0.25 µg/mL (≈ 0.341 µM)
MIC90 (Neisseria gonorrhoeae [12]): 1 µg/mL (≈ 1.36 µM)
Range (Neisseria gonorrhoeae [12]): 0.0075-8
MIC50 (Bacteroides fragilis [13]): 1 µg/mL (≈ 1.36 µM)
MIC90 (Bacteroides fragilis [13]): 8 µg/mL (≈ 10.9 µM)
Range (Bacteroides fragilis [13]): ≤0.25-16
Range [14]: 0.015-4 and 0.03-2
MIC90 (N. meningitidis): 0.4-1.6
MIC50 [15]: 8 µg/mL (≈ 10.9 µM)
MIC90 [15]: 16 µg/mL (≈ 21.8 µM)
Range [15]: 0.25-16
MIC90 (Ureaplasma urealyticum): 32 µg/mL (≈ 43.6 µM)
MIC90 [1]: 0.25-0.50
MIC50 [16]: ≥ 64 µg/mL
MIC90 [16]: ≥ 64 µg/mL
MIC50 (Neisseria meningitidis): 1 µg/mL (≈ 1.36 µM)
MIC90 (Neisseria meningitidis): 8 µg/mL (≈ 10.9 µM)
Range (Neisseria meningitidis): 0.5-8
MIC90 (Legionella spp.): 0.25 µg/mL (≈ 0.341 µM)
MIC90 (Neisseria gonorrhoeae [2]): 0.25-2.0
MIC90 [3]: 0.03-0.25
MIC90 (Listeria monocytogenes [4]): 0.5-2.0
MIC90 (Mycoplasma pneumoniae [17]): ≤ 0.004 µg/mL
MIC90 (Streptococcus pneumoniae): 0.03-1.0
MIC50 (Bordetella pertussis [18]): 0.25 µg/mL (≈ 0.341 µM)
MIC90 (Viridans streptococci): 0.06 µg/mL (≈ 0.0818 µM)
MIC50 [19]: 8 µg/mL (≈ 10.9 µM)
MIC90 [19]: 16 µg/mL (≈ 21.8 µM)
Range [19]: 8-16
MIC50 [20]: 0.25 µg/mL (≈ 0.341 µM)
MIC50 (Streptococcus pyogenes): 0.06 µg/mL (≈ 0.0818 µM)
MIC90 [5]: 0.065-1.0
MIC50 (Bacillus spp.): 0.25 µg/mL (≈ 0.341 µM)
MIC90 (Bacillus spp.): 2 µg/mL (≈ 2.73 µM)
Range (Bacillus spp.): 0.03-2
MIC50 (Listeria monocytogenes [21]): 0.5 and 0.25
MIC50 [22]: 8 µg/mL (≈ 10.9 µM)
MIC90 [22]: 32 µg/mL (≈ 43.6 µM)
Range [22]: 4-32
MIC50 (Haemophilus ducreyi): 0.004 µg/mL (≈ 0.00545 µM)
MIC90 (Haemophilus ducreyi): 0.06 µg/mL (≈ 0.0818 µM)
MIC90 [23]: 0.5 µg/mL (≈ 0.681 µM)
MIC50 ([23]; in µg/mL): 0.5 and 0.25
MIC50 (Nocardia asteroides): ≥ 8 µg/mL
MIC90 (Nocardia asteroides): ≥ 8 µg/mL
MIC50 (Streptococcus agalactiae): 0.03 µg/mL (≈ 0.0409 µM)
Range (Streptococcus agalactiae): 0.03-0.25
MIC90 (Campylobacter jejuni): 4 and 2
MIC50 (Streptococcus spp.): 0.03 µg/mL (≈ 0.0409 µM)
MIC90 (Streptococcus spp.): 1 µg/mL (≈ 1.36 µM)
MIC50 [24]: 0.25 µg/mL (≈ 0.341 µM)
MIC90 [24]: ≥ 32 µg/mL
MIC50 (Enterococcus spp.): 2 µg/mL (≈ 2.73 µM)
MIC90 (Enterococcus spp.): ≥ 32 µg/mL
MIC90 [25]: 0.25 µg/mL (≈ 0.341 µM)
Range [25]: 0.03-8
MIC90 (Chlamydia trachomatis): 0.12-0.25
MIC90 [6]: 0.03 µg/mL (≈ 0.0409 µM)
MIC90 (S. aureus): about 4 μg/ml
MIC90 (Bacteroides fragilis [7]): 4.0-32.0
MIC90 [26]: 4 µg/mL (≈ 5.45 µM)
Range [26]: 0.06-16
MIC90 (Mycoplasma pneumoniae [8]): 0.004
MIC50 [27]: 2 µg/mL (≈ 2.73 µM)
MIC90 [27]: 4 µg/mL (≈ 5.45 µM)
Range [27]: 0.5-8
MIC50 (Campylobacter pylori): 0.5 µg/mL (≈ 0.681 µM)
Range (Campylobacter pylori): 0.25-16
MIC50 (Bordetella parapertussis): 0.25 µg/mL (≈ 0.341 µM)
MIC90 (Bordetella parapertussis): 0.25 µg/mL (≈ 0.341 µM)
MIC50 [28]: ≥ 64 µg/mL
MIC90 [28]: ≥ 64 µg/mL
MIC90 (Bordetella pertussis [29]): 0.3-1.6
MIC90 (Clostridium perfringens): 1.0
MIC90 (Moraxella catarrhalis): 0.25-2.0
clinical safety [30]: one of the safest antibiotics in current clinical use
MIC50 (Enterococcus faecium): 1 µg/mL (≈ 1.36 µM)
MIC90 (Enterococcus faecium): ≥ 64 µg/mL
MIC50 (Staphylococcus aureus): 0.5 µg/mL (≈ 0.681 µM)
MIC50 (Staphylococcus hominis): ≥ 64 µg/mL
MIC90 (Staphylococcus hominis): ≥ 64 µg/mL
MIC50 (Corynebacterium JK): 2 µg/mL (≈ 2.73 µM)
MIC90 (Corynebacterium JK): ≥ 64 µg/mL
MIC50 [31]: 0.25 and 0.5
MIC50 [32]: 0.25 µg/mL (≈ 0.341 µM)
MIC90 (Legionella pneumophila): 1.0-2.0
Range (Haemophilus influenzae [33]): 0.5-8
MIC50 (Haemophilus influenzae [33]; in µg/mL): 2 and 1
MIC50 (Borrelia burgdorferi): 0.03 µg/mL (≈ 0.0409 µM)
MIC90 (Borrelia burgdorferi): 0.06 µg/mL (≈ 0.0818 µM)
